Test results: US11999727B2 (Tango Therapeutics, Inc., priority 2020, dated 2024)
pIC50: −log10 of the molar value.

Tests used:
[1] = test system: HAP1 MTAP-deleted cell line; test: Viability assay, MTAP-deleted cell line; format: cell-based; details: Homo sapiens, HAP1, viability assay, MTAP-deleted cell line; read-out: HAP1 MTAP deleted viability
From the text: Table 1 additionally indicates IC50 values in a viability assay for the MTAP-deleted cell line (column 10), indicating the effect of treatment with compound on cell survival.

PRMT5 [2] = molecular target: T1, PRMT5 (Homo sapiens, UniProt O14744); test: PRMT5 biochemical IC50 assay with MTA as cofactor; details: PRMT5, MTA as cofactor; read-out: MTA IC50
T1 construct: purchased Viva (custom protein)

PRMT5 [3] = molecular target: T1, PRMT5; test: PRMT5 biochemical IC50 assay with no cofactor; details: PRMT5, no cofactor
From the text: Table 1 indicates IC50 values (μM) against PRMT5 for exemplary compounds in the presence of SAM as cofactor, with no cofactor, and with MTA as cofactor, respectively (columns 4-6). […] Ki values can be calculated from the IC50 values as described in the Examples section. As detailed in the Examples section, for the assay performed in the presence of SAM, IC50=Ki×1.5 (Ki=IC50/1.5).

[4] = test system: HAP1 MTAP-intact cell line; test: SDMA in-cell western assay, HAP1 MTAP-intact; format: cell-based; details: Homo sapiens, HAP1, SDMA in-cell western, HAP1 MTAP-intact; read-out: MTAP HAP1 intact IC50
In short: (§1)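 IC50 values come from SDMA signal quantified by in-cell western in two HAP1 lines, one with native MTAP levels and one lacking MTAP.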

[5] = test system: HAP1 MTAP-deleted cell line; test: SDMA in-cell western assay, HAP1 MTAP-deleted; format: cell-based; details: for pIC50: Homo sapiens, HAP1, SDMA in-cell western, HAP1 MTAP-deleted; for MTAP intact/deleted ratio: IC50 ratio HAP1 MTAP-intact / HAP1 MTAP-deleted, SDMA in-cell western
In short: as §1

PRMT5 [6] = molecular target: T1, PRMT5; test: PRMT5 biochemical IC50 assay with SAM as cofactor; details: PRMT5, SAM as cofactor; read-out: SAM IC50
[7] = read-out: No Cofactor/ rel IC50
[8] = read-out: HAP 1 MTAP deleted IC50
[9] = read-out: HAP1 MTAP deleted IC50

T1 sequence (O14744 whole entry): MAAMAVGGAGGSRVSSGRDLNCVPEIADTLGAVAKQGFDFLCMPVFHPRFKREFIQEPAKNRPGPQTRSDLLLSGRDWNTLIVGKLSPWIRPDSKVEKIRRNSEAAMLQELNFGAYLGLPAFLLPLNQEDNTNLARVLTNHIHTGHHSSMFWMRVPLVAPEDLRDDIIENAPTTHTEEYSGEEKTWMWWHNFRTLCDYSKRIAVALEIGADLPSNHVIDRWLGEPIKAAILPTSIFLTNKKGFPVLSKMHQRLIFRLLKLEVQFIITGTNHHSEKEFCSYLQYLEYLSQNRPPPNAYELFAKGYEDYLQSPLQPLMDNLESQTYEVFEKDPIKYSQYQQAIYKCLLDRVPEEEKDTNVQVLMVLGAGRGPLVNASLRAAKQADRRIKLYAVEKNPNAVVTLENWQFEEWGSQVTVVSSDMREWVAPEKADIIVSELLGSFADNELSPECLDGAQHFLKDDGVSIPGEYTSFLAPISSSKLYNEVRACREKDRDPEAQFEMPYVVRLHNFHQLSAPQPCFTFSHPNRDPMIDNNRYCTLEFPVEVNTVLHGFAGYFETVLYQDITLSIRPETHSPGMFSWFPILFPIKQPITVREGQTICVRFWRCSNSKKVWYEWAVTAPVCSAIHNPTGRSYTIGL
T1 sequence (Q9BQA1 whole entry partner): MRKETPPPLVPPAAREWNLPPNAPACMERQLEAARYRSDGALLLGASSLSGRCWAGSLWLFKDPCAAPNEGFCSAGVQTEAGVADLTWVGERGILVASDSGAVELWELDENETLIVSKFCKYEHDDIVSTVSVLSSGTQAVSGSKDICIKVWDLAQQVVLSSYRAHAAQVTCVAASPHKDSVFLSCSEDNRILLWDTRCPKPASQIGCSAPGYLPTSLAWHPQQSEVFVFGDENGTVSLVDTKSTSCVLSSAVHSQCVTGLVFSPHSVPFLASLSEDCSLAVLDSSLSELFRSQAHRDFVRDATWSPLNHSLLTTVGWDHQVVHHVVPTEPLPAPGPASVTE

Row | Compound | pIC50 (PRMT5 [2]) | pIC50 (PRMT5 [3]; [7]) | pIC50 [4] | pIC50 [5, 8] | pIC50 (PRMT5 [6]) | pIC50 (PRMT5 [3]; read-out: No Cofactor/rel IC50) | pIC50 [5, 9] | pIC50 [1] | MTAP intact/deleted ratio [5]
1 | Cc1ccc2cc([C@@H]3CC[C@@H](C)CN3C(=O)C(=O)Nc3cncc(C(N)=O)c3)ccc2n1 (racemic) [Compound 167, rac-5-{2-[(2R,5S)-5-Methyl-2-(2-methylquinolin-6-yl)piperidin-1-yl]-2-oxoacetamido}pyridine-3-carboxamide] | > 7.30 | 6.30 to 7.30 | < 6.00 | 6.00 to 7.00 | 6.30 to 7.30 |  |  | 5.00 to 6.00 | A (an IC50 ratio greater than or equal to 10 fold)
2 | Cc1cc(NC(=O)C(=O)N2C[C@H](C)CC[C@@H]2C)cnc1N (racemic) [Compound 168, N-(6-amino-5-methyl-3-pyridyl)-2-[(2S,5R)-2,5-dimethyl-1-piperidyl]-2-oxo-acetamide] | 6.30 to 7.30 | 6.30 to 7.30 | < 6.00 | < 6.00 | 6.30 to 7.30 |  |  | < 5.00 | C (an IC50 ratio of less than 3 fold)
3 | C[C@@H]1CC[C@@H](C2CCCC2)N(C(=O)C(=O)Nc2cncc(C(N)=O)c2)C1 (racemic) [Compound 172, 5-(2-(2-cyclopentyl-5-methylpiperidin-1-yl)-2-oxoacetamido)nicotinamide] | > 7.30 | 6.30 to 7.30 | < 6.00 | 6.00 to 7.00 | 6.30 to 7.30 |  |  | < 5.00 | A (an IC50 ratio greater than or equal to 10 fold)
4 | Cc1cc(NC(=O)C(=O)N2C[C@H](C)CC[C@@H]2C2CCCCC2)cnc1N (racemic) [Compound 175, N-(6-amino-5-methyl-3-pyridyl)-2-[(2R,5R)-2-cyclohexyl-5-methyl-1-piperidyl]-2-oxo-acetamide] | 6.30 to 7.30 |  | < 6.00 |  | < 6.30 | < 6.30 | < 6.00 | < 5.00 | B (an IC50 ratio greater than or equal to 3 fold but lower than 10 fold)
5 | CC(C)[C@@H]1CC[C@@H](C)CN1C(=O)C(=O)Nc1cncc(C(N)=O)c1 (racemic) [Compound 176, 5-[[2-[(2S,5R)-2-isopropyl-5-methyl-1-piperidyl]-2-oxo-acetyl]amino]pyridine-3-carboxamide] | > 7.30 |  | < 6.00 |  | 6.30 to 7.30 | 6.30 to 7.30 | 6.00 to 7.00 | < 5.00 | A (an IC50 ratio greater than or equal to 10 fold)
6 | Cc1ccc([C@@H]2CC[C@@H](C)CN2C(=O)C(=O)Nc2cncc(C(N)=O)c2)cc1Cl (racemic) [Compound 179, rac-5-{2-[(2R,5S)-2-(3-Chloro-4-methylphenyl)-5-methylpiperidin-1-yl]-2-oxoacetamido}pyridine-3-carboxamide] | > 7.30 |  | < 6.00 |  | 6.30 to 7.30 | 6.30 to 7.30 | > 7.00 | 5.00 to 6.00 | A (an IC50 ratio greater than or equal to 10 fold)
7 | C[C@@H]1CC[C@@H](c2cc(Cl)cc(Cl)c2)N(C(=O)C(=O)Nc2cncc(C(N)=O)c2)C1 (racemic) [Compound 206, rac-5-{2-[(2R,5S)-2-(3,5-Dichlorophenyl)-5-methylpiperidin-1-yl]-2-oxoacetamido}pyridine-3-carboxamide] | > 7.30 |  | < 6.00 |  | 6.30 to 7.30 | 6.30 to 7.30 | 6.00 to 7.00 | 5.00 to 6.00 | A (an IC50 ratio greater than or equal to 10 fold)

Now from value to molecule, other results behind:

Row | pIC50 (PRMT5 [2]) | pIC50 (PRMT5 [3]; [7]) | pIC50 [4] | pIC50 [5, 8] | pIC50 (PRMT5 [6]) | pIC50 (PRMT5 [3]; read-out: No Cofactor/rel IC50) | pIC50 [5, 9] | Compound | pIC50 [1] | MTAP intact/deleted ratio [5]
8 | > 7.30 | 6.30 to 7.30 | < 6.00 | 6.00 to 7.00 | 6.30 to 7.30 |  |  | Cc1cc(NC(=O)C(=O)N2C[C@H](C)CC[C@H]2C(C)C)cnc1N (racemic) [Compound 165, N-(6-amino-5-methyl-3-pyridyl)-2-[(2S,5R)-2-isopropyl-5-methyl-1-piperidyl]-2-oxo-acetamide] | < 5.00 | A (an IC50 ratio greater than or equal to 10 fold)
9 | > 7.30 | 6.30 to 7.30 | < 6.00 | > 7.00 | 6.30 to 7.30 |  |  | Cc1cc([C@@H]2CC[C@@H](C)CN2C(=O)C(=O)Nc2cncc(C(N)=O)c2)ccc1OC1CCOC1 (mixture of isomers) [Compound 171, rac-5-{2-[(2R,5S)-5-Methyl-2-[3-methyl-4-(oxolan-3-yloxy)phenyl]piperidin-1-yl]-2-oxoacetamido}pyridine-3-carboxamide] | 5.00 to 6.00 | A (an IC50 ratio greater than or equal to 10 fold)
10 | > 7.30 | 6.30 to 7.30 | < 6.00 | > 7.00 | 6.30 to 7.30 |  |  | Cc1cc([C@@H]2CC[C@@H](C)CN2C(=O)C(=O)Nc2cncc(C(N)=O)c2)ccc1Cl (racemic) [Compound 173, rac-5-{2-[(2R,5S)-2-(4-Chloro-3-methylphenyl)-5-methylpiperidin-1-yl]-2-oxoacetamido}pyridine-3-carboxamide] | 5.00 to 6.00 | A (an IC50 ratio greater than or equal to 10 fold)
11 | > 7.30 |  | < 6.00 |  | 6.30 to 7.30 | 6.30 to 7.30 | > 7.00 | C[C@@H]1CC[C@@H](c2cccc(Cl)c2)N(C(=O)C(=O)Nc2cncc(C(N)=O)c2)C1 (racemic) [Compound 174, rac-5-{2-[(2R,5S)-2-(3-Chlorophenyl)-5-methylpiperidin-1-yl]-2-oxoacetamido}pyridine-3-carboxamide] | 5.00 to 6.00 | A (an IC50 ratio greater than or equal to 10 fold)
12 | 6.30 to 7.30 |  | < 6.00 |  | 6.30 to 7.30 | 6.30 to 7.30 | < 6.00 | Cc1cc(NC(=O)C(=O)N2C[C@H](C(F)(F)F)CC[C@H]2c2ccccc2)cnc1N (racemic) [Compound 177, rac-N-(6-amino-5-methylpyridin-3-yl)-2-oxo-2-((2R,5S)-2-phenyl-5-(trifluoromethyl)piperidin-1-yl)acetamide] | < 5.00 | B (an IC50 ratio greater than or equal to 3 fold but lower than 10 fold)
13 | > 7.30 |  | < 6.00 |  | 6.30 to 7.30 | 6.30 to 7.30 | 6.00 to 7.00 | Cc1ccc([C@@H]2CC[C@@H](C)CN2C(=O)C(=O)Nc2cncc(C(N)=O)c2)cc1C (racemic) [Compound 180, rac-5-{2-[(2R,5S)-2-(3,4-Dimethylphenyl)-5-methylpiperidin-1-yl]-2-oxoacetamido}pyridine-3-carboxamide] | 5.00 to 6.00 | A (an IC50 ratio greater than or equal to 10 fold)
14 | > 7.30 |  | < 6.00 |  | 6.30 to 7.30 | 6.30 to 7.30 | 6.00 to 7.00 | C[C@@H]1CC[C@@H](c2ccccc2)N(C(=O)C(=O)Nc2cncc(C(N)=O)c2)[C@H]1C (racemic) [Compound 181, rac-5-[[2-[(2S,3R,6S)-2,3-dimethyl-6-phenyl-1-piperidyl]-2-oxo-acetyl]amino]pyridine-3-carboxamide] | 5.00 to 6.00 | A (an IC50 ratio greater than or equal to 10 fold)
15 | 6.30 to 7.30 |  | < 6.00 |  | 6.30 to 7.30 | < 6.30 | < 6.00 | NC(=O)c1cncc(NC(=O)C(=O)N2CC[C@@H](O)C[C@H]2c2ccccc2)c1 (racemic) [Compound 185, 5-(2-(4-hydroxy-2-phenylpiperidin-1-yl)-2-oxoacetamido)nicotinamide] | < 5.00 | C (an IC50 ratio of less than 3 fold)
16 | > 7.30 |  | 6.00 to 7.00 |  | 6.30 to 7.30 | 6.30 to 7.30 | > 7.00 | Cc1cc(NC(=O)C(=O)N2C[C@@H](C)CC[C@@H]2c2cccc(O)c2)cnc1N (racemic) [Compound 187, rac-N-(6-amino-5-methylpyridin-3-yl)-2-((2R,5S)-2-(3-hydroxyphenyl)-5-methylpiperidin-1-yl)-2-oxoacetamide] | 5.00 to 6.00 | A (an IC50 ratio greater than or equal to 10 fold)
17 | > 7.30 |  | < 6.00 |  | 6.30 to 7.30 | 6.30 to 7.30 | 6.00 to 7.00 | Cc1cc(NC(=O)C(=O)N2C[C@H](C)CC[C@H]2C2CCCC2)cnc1N (racemic) [Compound 190, N-(6-amino-5-methyl-3-pyridyl)-2-[(2S,5R)-2-cyclopentyl-5-methyl-1-piperidyl]-2-oxo-acetamide] | 5.00 to 6.00 | B (an IC50 ratio greater than or equal to 3 fold but lower than 10 fold)
